Converted amounts (≈) assume the structure as drawn. The source made the active and inactive calls. No cut-off for these calls is given here.
Tests used:
[1] = system: Mycolicibacterium smegmatis; experiment: Antitubercular activity against Mycobacterium smegmatis mc2155 ATCC 700084 cultured in GAST media incubated for 24 hrs by resazurin microtiter assay; assay type: functional
[2] = system: Mycolicibacterium smegmatis; experiment: Antitubercular activity against Mycobacterium smegmatis mc2155 ATCC 700084 cultured in GAST-Fe media incubated for 24 hrs by resazurin microtiter assay; assay type: functional
[3] = system: Mycolicibacterium aurum; experiment: Antimycobacterial activity against Mycobacterium aurum ATCC 10437 cultured in GAST media incubated for 72 hrs by resazurin microtiter assay; assay type: functional
[4] = system: Mycolicibacterium aurum; experiment: Antimycobacterial activity against Mycobacterium aurum ATCC 10437 cultured in GAST-Fe media incubated for 72 hrs by resazurin microtiter assay; assay type: functional
[5] = system: Mycobacterium tuberculosis; experiment: microbe, parasite or virus in culture; settings: H37Rv ATCC 27294, 192 h
[6] = system: Mycobacterium tuberculosis; experiment: microbe, parasite or virus in culture; settings: H37Rv ATCC 27294, 192 h; remark: listed apart in the source
[7] = system: Mycolicibacterium smegmatis; experiment: Antibacterial activity against Mycobacterium smegmatis mc2155 ATCC 700084 cultured in iron supplemented medium assessed as inhibition of siderophore production at 4 ug/ml measured after 3 hrs by CAS assay relative to control; assay type: functional; set-up: scale not given: the % may be the effect or the level left; settings: dose 4 µg/ml
[8] = molecular target: T1, Salicyl-AMP ligase / salicyl-S-ArCP synthetase (Mycobacterium tuberculosis) (UniProt P71716); experiment: Binding affinity to Mycobacterium tuberculosis MbtA assessed as change in thermal stability at 100 uM incubated for 1 hr in presence of ATP at pH 7.5 by thermo fluorometer analysis
T1 sequence (whole entry): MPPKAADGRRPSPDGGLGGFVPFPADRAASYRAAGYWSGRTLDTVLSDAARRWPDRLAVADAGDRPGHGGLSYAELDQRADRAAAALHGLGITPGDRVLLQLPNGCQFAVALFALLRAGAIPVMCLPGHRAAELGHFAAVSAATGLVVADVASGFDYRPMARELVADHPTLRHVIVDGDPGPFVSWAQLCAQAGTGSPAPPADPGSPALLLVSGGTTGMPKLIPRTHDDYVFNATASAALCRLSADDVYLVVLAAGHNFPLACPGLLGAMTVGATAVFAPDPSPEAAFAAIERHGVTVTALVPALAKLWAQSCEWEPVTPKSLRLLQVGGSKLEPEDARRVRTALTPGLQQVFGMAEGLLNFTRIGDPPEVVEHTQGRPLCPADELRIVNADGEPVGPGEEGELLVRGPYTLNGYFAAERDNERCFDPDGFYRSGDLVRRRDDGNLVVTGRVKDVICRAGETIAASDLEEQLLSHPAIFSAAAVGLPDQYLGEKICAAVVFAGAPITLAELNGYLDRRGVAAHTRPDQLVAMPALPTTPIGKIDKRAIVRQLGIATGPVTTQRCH

[9] = molecular target: T1, Salicyl-AMP ligase / salicyl-S-ArCP synthetase (Mycobacterium tuberculosis); experiment: Binding affinity to Mycobacterium tuberculosis MbtA assessed as change in thermal stability at 100 uM incubated for 1 hr in presence of ATP at pH 8.5 by thermo fluorometer analysis
[10] = system: Mycolicibacterium smegmatis; experiment: Antibacterial activity against Mycobacterium smegmatic mc2155 ATCC 700084 assessed as inhibition of efflux pump using ethidium bromide as substrate measured every min for 45 mins; assay type: functional, organism-based
[11] = system: RAW264.7; experiment: Cytotoxicity against mouse RAW264.7 cell assessed as inhibition of growth measured for 48 hrs by resazurin microtiter assay; assay type: functional
[12] = system: THP-1; experiment: Cytotoxicity against human THP-1 cells assessed as inhibition of growth measured for 48 hrs by resazurin microtiter assay; assay type: functional
[13] = Selectivity index, ratio of GIC90 for cytotoxicity against mouse RAW264.7 cells to MIC90 for Antitubercular activity against Mycobacterium smegmatis mc2155 ATCC 700084; assay type: toxicity, cell-based; settings: read-out: Selectivity Index
[14] = Selectivity index, ratio of GIC90 for cytotoxicity against human THP-1 cells to MIC90 for Antitubercular activity against Mycobacterium smegmatis mc2155 ATCC 700084; assay type: toxicity, cell-based; settings: read-out: Selectivity Index
[15] = Selectivity index, ratio of GIC90 for Cytotoxicity against mouse RAW264.7 cells MIC90 for Antitubercular activity against Mycobacterium aurum ATCC 10437; assay type: toxicity, cell-based; settings: read-out: Selectivity Index
[16] = Selectivity index, ratio of GIC90 for Cytotoxicity against human THP-1 cells to MIC90 for Antitubercular activity against Mycobacterium aurum ATCC 10437; assay type: toxicity, cell-based; settings: read-out: Selectivity Index
[17] = Selectivity index, ratio of GIC90 for Cytotoxicity against mouse RAW264.7 cells to MIC90 for Antitubercular activity against Mycobacterium bovis BCG ATCC 35734; assay type: toxicity, cell-based; settings: read-out: Selectivity Index
[18] = Selectivity index, ratio of GIC90 for Cytotoxicity against […] human THP-1 cells to MIC90 for Antitubercular activity against Mycobacterium bovis BCG ATCC 35734; assay type: toxicity, cell-based; settings: read-out: Selectivity Index
[19] = system: Mycolicibacterium aurum; experiment: Antimycobacterial activity against Mycobacterium aurum ATCC 10437 infected in RAW264.7 cells assessed as inhibition of growth at 16 ug/ml incubated for 72 hrs by SPOTi assay; assay type: functional; set-up: scale not given: the % may be the effect or the level left; settings: dose 16 µg/ml
[20] = system: Mycolicibacterium smegmatis; experiment: Synergistic antibacterial activity against Mycobacterium smegmatis mc2155 ATCC 700084 assessed as fractional inhibitory concentration in presence of isoniazid by checker board assay; assay type: functional
[21] = system: Mycolicibacterium smegmatis; experiment: Synergistic antibacterial activity against Mycobacterium smegmatis mc2155 ATCC 700084 assessed as fractional inhibitory concentration in presence of rifampicin by checker board assay; assay type: functional
[22] = Cmax in Sprague-Dawley rat at 1 mg/kg, iv; assay type: ADME, organism-based; set-up: route intravenous, dose 1 mg/kg; settings: in vivo
[23] = AUClast in Sprague-Dawley rat at 1 mg/kg, iv; assay type: ADME, organism-based; set-up: route intravenous, time 0 - last, dose 1 mg/kg; settings: in vivo
[24] = AUCinfinity in Sprague-Dawley rat at 1 mg/kg, iv; assay type: ADME, organism-based; set-up: time infinity, route intravenous, dose 1 mg/kg; settings: in vivo
[25] = Elimination half life in Sprague-Dawley rat at 1 mg/kg, iv; assay type: ADME, organism-based; settings: in vivo, read-out: beta t1/2 (converted)
[26] = Tlast in Sprague-Dawley rat at 1 mg/kg, iv; assay type: ADME, organism-based; settings: in vivo
[27] = Volume of distribution at steady state in Sprague-Dawley rat at 1 mg/kg, iv; assay type: ADME, organism-based; settings: in vivo
[28] = Hepatic clearance in Sprague-Dawley rat at 1 mg/kg, iv; assay type: ADME, organism-based, Liver; settings: in vivo
[29] = Cmax in Sprague-Dawley rat at 5 mg/kg, po; assay type: ADME, organism-based; set-up: route oral, dose 5 mg/kg; settings: in vivo
[30] = AUClast in Sprague-Dawley rat at 5 mg/kg, po; assay type: ADME, organism-based; set-up: time 0 - last, route oral, dose 5 mg/kg; settings: in vivo
[31] = AUCinfinity in Sprague-Dawley rat at 5 mg/kg, po; assay type: ADME, organism-based; set-up: time infinity, route oral, dose 5 mg/kg; settings: in vivo
[32] = Elimination half life in Sprague-Dawley rat at 5 mg/kg, po; assay type: ADME, organism-based; settings: in vivo, read-out: beta t1/2 (converted)
[33] = Tlast in Sprague-Dawley rat at 5 mg/kg, po; assay type: ADME, organism-based; settings: in vivo
[34] = Oral bioavailability in Sprague-Dawley rat at 5 mg/kg; assay type: ADME, organism-based; settings: in vivo
[35] = system: Mycolicibacterium smegmatis; experiment: Bactericidal activity against Mycobacterium smegmatis mc2155 ATCC 700084 assessed as inhibition of bacterial growth preincubated for 48 hrs followed by agar surface scraped and transfer to GAST medium and measured after 5 days by HT-SPOTi assay; assay type: functional, organism-based; settings: time 7.0 day
[36] = system: Mycolicibacterium smegmatis; experiment: Bacteriostatic activity against Mycobacterium smegmatis mc2155 ATCC 700084 assessed as inhibition of bacterial growth preincubated for 48 hrs followed by agar surface scraped and transfer to GAST medium and measured after 5 days by HT-SPOTi assay; assay type: functional, organism-based; settings: time 7.0 day

| SMILES | MIC90 [1] | MIC90 [2] | MIC90 [3] | MIC90 [4] | MIC90 [5] | MIC90 [6] | Activity [7] | Tm [8] | Tm [9] | Activity [10] | GI90 [11] | GI90 [12] | selectivity ratio [13] | selectivity ratio [14] | selectivity ratio [15] | selectivity ratio [16] | selectivity ratio [17] | selectivity ratio [18] | Activity [19] | FIC [20] | other results |
| --- | --- | --- | --- | --- | --- | --- | --- | --- | --- | --- | --- | --- | --- | --- | --- | --- | --- | --- | --- | --- | --- |
| NC(=S)N1N=C(c2ccccc2O)CC1c1ccccc1 (configuration not stated) | 128 µg/mL (≈ 430 µM) | 256 µg/mL (≈ 861 µM) | 64 µg/mL (≈ 215 µM) | 64 µg/mL (≈ 215 µM) | 4 µg/mL (≈ 13.5 µM) | 128 µg/mL (≈ 430 µM) |  |  |  |  |  |  |  |  |  |  |  |  |  |  |  |
| NC(=S)N1N=C(c2ccccc2O)CC1c1ccc(O)cc1 (configuration not stated) | 256 µg/mL (≈ 817 µM) | > 256 µg/mL | 64 µg/mL (≈ 204 µM) | 128 µg/mL (≈ 408 µM) | 64 µg/mL (≈ 204 µM) | 256 µg/mL (≈ 817 µM) |  |  |  |  |  |  |  |  |  |  |  |  |  |  |  |
| Oc1ccccc1C1=NNC(c2ccc(Cl)cc2)C1 (configuration not stated) | 4 µg/mL (≈ 14.7 µM) | 64 µg/mL (≈ 235 µM) | 16 µg/mL (≈ 58.7 µM) | 128 µg/mL (≈ 469 µM) | 16 µg/mL (≈ 58.7 µM) | 128 µg/mL (≈ 469 µM) | 54.7% | 2 °C | 2 °C | Active | 128 µg/mL (≈ 469 µM) | 64 µg/mL (≈ 235 µM) | 32 | 16 | 8 | 8 | 16 | 16 | 90% | 0.6 | FIC [21]: 1.12; Cmax [22]: 448 ng/mL; AUC(0-t) [23]: 190 ng·h/mL; AUC(0-inf) [24]: 197 ng·h/mL; half-life [25]: 4.76 h; Tlast [26]: 12 h; Vdss [27]: 11.5 kg/L; CLH [28]: 84.8 mL/min/kg; Cmax [29]: 51.6 ng/mL; AUC(0-t) [30]: 203 ng·h/mL; AUC(0-inf) [31]: 215 ng·h/mL; half-life [32]: 6.06 h; Tlast [33]: 24 h; bioavailability [34]: 21%; Activity [35]: Active |
| Oc1ccccc1C1=NNC(c2ccc(Br)cc2)C1 (configuration not stated) | 4 µg/mL (≈ 12.6 µM) | 64 µg/mL (≈ 202 µM) | 8 µg/mL (≈ 25.2 µM) | 128 µg/mL (≈ 404 µM) | 8 µg/mL (≈ 25.2 µM) | 128 µg/mL (≈ 404 µM) | 51.76% | 2 °C | 2.5 °C | Active | 128 µg/mL (≈ 404 µM) | 64 µg/mL (≈ 202 µM) | 32 | 16 | 8 | 8 | 16 | 16 | 90% | 0.6 | Activity [36]: Active; FIC [21]: 1.12; Cmax [22]: 505 ng/mL; AUC(0-t) [23]: 155 ng·h/mL; AUC(0-inf) [24]: 167 ng·h/mL; half-life [25]: 5.42 h; Tlast [26]: 12 h; Vdss [27]: 17.3 kg/L; CLH [28]: 100 mL/min/kg; Cmax [29]: 47.4 ng/mL; AUC(0-t) [30]: 167 ng·h/mL; AUC(0-inf) [31]: 184 ng·h/mL; half-life [32]: 5.32 h; Tlast [33]: 24 h; bioavailability [34]: 22% |

Reference: ChEMBL document CHEMBL5046254, “Mycobactin Analogues with Excellent Pharmacokinetic Profile Demonstrate Potent Antitubercular Specific Activity and Exceptional Efflux Pump Inhibition” (J Med Chem, 2022)
